Where two headings read alike, the source gives them in different places.
Legend:
[1] = test system: Plasmodium falciparum 3D7-A10 parasites; assay: Stage specificity assay (8-h exposure of synchronized stages, IC50^8h); assay type: cell-based; conditions: for IC50: Plasmodium falciparum
[2] = test system: asynchronous 3D7-A10 parasite cultures; assay: Standard 72-h exposure asexual blood stage susceptibility assay (IC50^72h); assay type: cell-based, Plasmodium falciparum; conditions: Plasmodium falciparum, 3D7, 72 h, read-out: Overall (72hr assay) Mean IC50 (IC50^72h)
[3] = test system: 3D7-MR4 trophozoite parasite-infected RBCs; assay: Metabolomic profiling (hydrophilic metabolite changes, UHPLC-MS); assay type: cell-based, Plasmodium falciparum
[4] = test system: 3D7-MR4 trophozoite parasite-infected RBCs; conditions: 10 × IC50^72h; ref Allman et al., 2016; cited from earlier work

For `C[C@H]1Cc2c([nH]c3cc(Cl)c(F)cc23)[C@@]2(N1)C(=O)Nc1ccc(Cl)cc12` [KAE609, reference compound], the “Ratio lowest IC50 8hr/IC50 72hr” value ([1]; 3D7-A10) was 1.5, the “overall activity profile (stages on which active)” value ([1]; 8-h exposures) was “inactive against rings yet active against early trophozoites and later stages” and the IC50 ([1]; 3D7, read-out: Early rings IC50 (IC50^8h)) was > 1250 nM. For the same molecule, the IC50 ([1]; 3D7, read-out: Early trophozoites Mean IC50 (IC50^8h)) was 3.2 nM, the IC50 ([1]; 3D7, read-out: Late rings IC50 (IC50^8h)) was > 1250 nM and the IC50 ([1]; 3D7, read-out: Late trophozoites Mean IC50 (IC50^8h)) was 1.1 nM. The IC50 ([1]; 3D7, read-out: Schizonts Mean IC50 (IC50^8h)) was 1.2 nM, the IC50 [2] was 0.73 nM and the “Log2(fold changes) 3-phosphoglycerate” value ([3]; metabolite 3-phosphoglycerate, log2 fold change) was 0.0100. The “Log2(fold changes) 4-Pyridoxic acid” value ([3]; metabolite 4-Pyridoxic acid, log2 fold change) was -0.6000, the “Log2(fold changes) 4-aminobutyrate” value ([3]; metabolite 4-aminobutyrate, log2 fold change) was -0.5400 and the “Log2(fold changes) 4-phosphopantetheine” value ([3]; metabolite 4-phosphopantetheine, log2 fold change) was 0.0000. For the same molecule, the “Log2(fold changes) 4-phosphopantothenate” value ([3]; metabolite 4-phosphopantothenate, log2 fold change) was -0.1500, the “Log2(fold changes) 5-aminopentanoic acid” value ([3]; metabolite 5-aminopentanoic acid, log2 fold change) was 0.0000 and the “Log2(fold changes) 5-methyl-THF” value ([3]; metabolite 5-methyl-THF, log2 fold change) was 0.0000. The “Log2(fold changes) 5-phosphoribosyl-1-pyrophosphate” value ([3]; metabolite 5-phosphoribosyl-1-pyrophosphate, log2 fold change) was -2.9800, the “Log2(fold changes) 6-phospho-D-gluconate” value ([3]; metabolite 6-phospho-D-gluconate, log2 fold change) was -0.2800 and the “Log2(fold change) HVDD” value ([3]; metabolite HVDD) was 0.0000. The “Log2(fold change) Hydroxyisocaproic acid” value ([3]; metabolite Hydroxyisocaproic acid) was 0.0000, the “Log2(fold change) IDP” value ([3]; metabolite IDP) was 0.0000 and the “Log2(fold change) IMP” value ([3]; metabolite IMP) was 0.3800. For the same molecule, the “Log2(fold change) Inositol” value ([3]; metabolite Inositol) was 0.0000, the “Log2(fold change) Isopentyl-PP” value ([3]; metabolite Isopentyl-PP) was 0.0000 and the “Log2(fold change) L-arginino-succinate” value ([3]; metabolite L-arginino-succinate) was 0.0000. The “Log2(fold change) LD” value ([3]; metabolite LD) was -1.3200, the “Log2(fold change) Myristoyl/tetradecanoyl-CoA” value ([3]; metabolite Myristoyl/tetradecanoyl-CoA) was 0.0000 and the “Log2(fold change) N-Acetyl-L-alanine” value ([3]; metabolite N-Acetyl-L-alanine) was -1.4200. The “Log2(fold change) N-acetyl-L-ornithine” value ([3]; metabolite N-acetyl-L-ornithine) was -1.2700, the “Log2(fold change) N-acetyl-glucosamine-1/6-phosphate” value ([3]; metabolite N-acetyl-glucosamine-1/6-phosphate) was -0.2300 and the “Log2(fold change) N-acetyl-glutamate” value ([3]; metabolite N-acetyl-glutamate) was -0.2700. For the same molecule, the “Log2(fold change) N-acetyl-glutamine” value ([3]; metabolite N-acetyl-glutamine) was -0.4300, the “Log2(fold change) N-carbamoyl-L-aspartate” value ([3]; metabolite N-carbamoyl-L-aspartate) was -4.5700 and the “Log2(fold change) NAD+” value ([3]; metabolite NAD+) was -0.4000. For the same molecule, the “Log2(fold change) NADH” value ([3]; metabolite NADH) was 0.0300, the “Log2(fold change) NADP+” value ([3]; metabolite NADP+) was -0.1200 and the “Log2(fold change) NADPH” value ([3]; metabolite NADPH) was 0.3500. For the same molecule, the “Log2(fold change) O-acetyl-L-serine” value ([3]; metabolite O-acetyl-L-serine) was 0.0000, the “Log2(fold change) Octoluse 8/1P” value ([3]; metabolite Octoluse 8/1P) was -0.7200 and the “Log2(fold change) Octoluse Bisphosphate” value ([3]; metabolite Octoluse Bisphosphate) was -1.2000. For the same molecule, the “Log2(fold change) PD” value ([3]; metabolite PD) was -1.2400, the “Log2(fold change) PE” value ([3]; metabolite PE) was -3.4900 and the “Log2(fold change) PEE” value ([3]; metabolite PEE) was -5.3200. The “Log2(fold change) PEEK” value ([3]; metabolite PEEK) was -1.5400, the “Log2(fold change) PVNF” value ([3]; metabolite PVNF) was -2.0700 and the “Log2(fold change) Pyroglutamic acid” value ([3]; metabolite Pyroglutamic acid) was -0.0600. For the same molecule, the “Log2(fold change) Pyrophosphate” value ([3]; metabolite Pyrophosphate) was -3.3800, the “Log2(fold change) Ribose-5-phosphate” value ([3]; metabolite Ribose-5-phosphate) was 0.0000 and the “Log2(fold change) S-adenosyl-L-homocysteine” value ([3]; metabolite S-adenosyl-L-homocysteine) was -1.6400. The “Log2(fold change) S-adenosyl-L-methioninamine” value ([3]; metabolite S-adenosyl-L-methioninamine) was 0.0000, the “Log2(fold change) S-adenosyl-L-methionine” value ([3]; metabolite S-adenosyl-L-methionine) was 0.0000 and the “Log2(fold change) S-methyl-5'-thioadenosine” value ([3]; metabolite S-methyl-5'-thioadenosine) was -0.5300. The “Log2(fold change) SD” value ([3]; metabolite SD) was -3.7000, the “Log2(fold change) SDL” value ([3]; metabolite SDL) was 0.0000 and the “Log2(fold change) SID” value ([3]; metabolite SID) was 0.0000. For the same molecule, the “Log2(fold change) Sedoheptulose bisphosphate” value ([3]; metabolite Sedoheptulose bisphosphate) was -1.3400, the “Log2(fold change) Thiamine pyrophosphate” value ([3]; metabolite Thiamine pyrophosphate) was 0.0000 and the “Log2(fold changes) UDP-D-glucose” value ([3]; metabolite UDP-D-glucose, log2 fold change) was -0.2000. For the same molecule, the “Log2(fold changes) UDP-D-glucuronate” value ([3]; metabolite UDP-D-glucuronate, log2 fold change) was -0.3600, the “Log2(fold changes) UDP-N-acetyl-glucosamine” value ([3]; metabolite UDP-N-acetyl-glucosamine, log2 fold change) was 0.0300 and the “Log2(fold changes) UDP” value ([3]; metabolite UDP, log2 fold change) was -0.9600. The “Log2(fold changes) UMP” value ([3]; metabolite UMP, log2 fold change) was -0.3800, the “Log2(fold changes) UTP” value ([3]; metabolite UTP, log2 fold change) was -2.0500 and the “Log2(fold change) hydroxyphenylpyruvate” value ([3]; metabolite hydroxyphenylpyruvate) was 0.0000. For the same molecule, the “Log2(fold change) hydroxyproline/Aminolevulinate” value ([3]; metabolite hydroxyproline/Aminolevulinate) was 0.0000, the “Log2(fold change) hypoxanthine” value ([3]; metabolite hypoxanthine) was 0.2700 and the “Log2(fold change) indole” value ([3]; metabolite indole) was 0.1700. The “Log2(fold change) inosine” value ([3]; metabolite inosine) was 0.1600, the “Log2(fold change) isoleucine” value ([3]; metabolite isoleucine) was 0.0000 and the “Log2(fold change) lactate” value ([3]; metabolite lactate) was -1.3100. The “Log2(fold change) leucine” value ([3]; metabolite leucine) was 0.0000, the “Log2(fold change) lysine” value ([3]; metabolite lysine) was 0.0000 and the “Log2(fold change) malate” value ([3]; metabolite malate) was -0.0600. For the same molecule, the “Log2(fold change) maleic acid” value ([3]; metabolite maleic acid) was 0.0000, the “Log2(fold change) methionine” value ([3]; metabolite methionine) was 0.0000 and the “Log2(fold change) myo-inositol” value ([3]; metabolite myo-inositol) was -3.2700. For the same molecule, the “Log2(fold change) nicotinamide mononucleotide” value ([3]; metabolite nicotinamide mononucleotide) was 0.0000, the “Log2(fold change) nicotinate” value ([3]; metabolite nicotinate) was 0.7800 and the “Log2(fold change) ornithine” value ([3]; metabolite ornithine) was -0.1500. The “Log2(fold change) orotate” value ([3]; metabolite orotate) was 0.9100, the “Log2(fold change) orotidine-5'-phosphate” value ([3]; metabolite orotidine-5'-phosphate) was 0.0000 and the “Log2(fold change) oxaloacetate” value ([3]; metabolite oxaloacetate) was 0.0000. The “Log2(fold change) p-aminobenzoate” value ([3]; metabolite p-aminobenzoate) was 0.0000, the “Log2(fold change) p-hydroxybenzoate” value ([3]; metabolite p-hydroxybenzoate) was 0.5800 and the “Log2(fold change) pantothenate” value ([3]; metabolite pantothenate) was 0.0000. For the same molecule, the “Log2(fold change) phenylalanine” value ([3]; metabolite phenylalanine) was 0.0000, the “Log2(fold change) phenylpyruvate” value ([3]; metabolite phenylpyruvate) was -0.7100 and the “Log2(fold change) phosphoenolpyruvate” value ([3]; metabolite phosphoenolpyruvate) was 0.4500. For the same molecule, the “Log2(fold change) prephenate” value ([3]; metabolite prephenate) was 0.0000, the “Log2(fold change) proline” value ([3]; metabolite proline) was 0.0000 and the “Log2(fold change) pyridoxine” value ([3]; metabolite pyridoxine) was 0.0000. For the same molecule, the “Log2(fold change) pyruvate” value ([3]; metabolite pyruvate) was -1.3400, the “Log2(fold change) riboflavin” value ([3]; metabolite riboflavin) was 0.0000 and the “Log2(fold change) ribose” value ([3]; metabolite ribose) was 0.0000. The “Log2(fold change) ribose-phosphate” value ([3]; metabolite ribose-phosphate) was -0.5600, the “Log2(fold change) ribulose-5-phosphate” value ([3]; metabolite ribulose-5-phosphate) was 0.0000 and the “Log2(fold change) serine” value ([3]; metabolite serine) was 0.0000. For the same molecule, the “Log2(fold change) sn-glycerol-3-phosphate” value ([3]; metabolite sn-glycerol-3-phosphate) was 0.6100, the “Log2(fold change) succinate/Methylmalonic acid” value ([3]; metabolite succinate/Methylmalonic acid) was 0.1400 and the “Log2(fold change) succinyl-CoA/methylmalonyl-CoA” value ([3]; metabolite succinyl-CoA/methylmalonyl-CoA) was 0.0000. The “Log2(fold change) taurine” value ([3]; metabolite taurine) was 0.0000, the “Log2(fold change) thiamine” value ([3]; metabolite thiamine) was 0.0000 and the “Log2(fold change) threonine/homoserine” value ([3]; metabolite threonine/homoserine) was 0.0000. The “Log2(fold change) thymidine” value ([3]; metabolite thymidine) was 0.7900, the “Log2(fold changes) thymine” value ([3]; metabolite thymine, log2 fold change) was -0.5500 and the “Log2(fold changes) trehalose-6-Phosphate” value ([3]; metabolite trehalose-6-Phosphate, log2 fold change) was 0.0000. For the same molecule, the “Log2(fold changes) tryptophan” value ([3]; metabolite tryptophan, log2 fold change) was 0.0000, the “Log2(fold changes) tyrosine” value ([3]; metabolite tyrosine, log2 fold change) was 0.0000 and the “Log2(fold changes) uridine” value ([3]; metabolite uridine, log2 fold change) was -0.4400. The “levels of cAMP” value [4] was “decreased”, the “levels of the deoxyribonucleotides dAMP and dTMP” value [4] was “increased” and the “nucleoside di- and tri-phosphate levels (GDP, UDP, GTP, dATP, dGTP/ATP, dUTP)” value [4] was “decreased”. The “peptide levels (hemoglobin catabolism signature)” value [4] was “decreased peptide levels”.

Reference: article PMC7031696 (Cell chemical biology, 2019)
